In general, pIC50 refers to the negative decadic logarithm of the IC50, by convention in mol/L.

Our source for the IC50 values is US20150175599A1, “FAAH Inhibitors” (Ironwood Pharmaceuticals, Inc., priority 2010, published 2015).

The target of this test is T1, human FAAH-1 (Homo sapiens, UniProt O00519).
T1 sequence (O00519 1-579): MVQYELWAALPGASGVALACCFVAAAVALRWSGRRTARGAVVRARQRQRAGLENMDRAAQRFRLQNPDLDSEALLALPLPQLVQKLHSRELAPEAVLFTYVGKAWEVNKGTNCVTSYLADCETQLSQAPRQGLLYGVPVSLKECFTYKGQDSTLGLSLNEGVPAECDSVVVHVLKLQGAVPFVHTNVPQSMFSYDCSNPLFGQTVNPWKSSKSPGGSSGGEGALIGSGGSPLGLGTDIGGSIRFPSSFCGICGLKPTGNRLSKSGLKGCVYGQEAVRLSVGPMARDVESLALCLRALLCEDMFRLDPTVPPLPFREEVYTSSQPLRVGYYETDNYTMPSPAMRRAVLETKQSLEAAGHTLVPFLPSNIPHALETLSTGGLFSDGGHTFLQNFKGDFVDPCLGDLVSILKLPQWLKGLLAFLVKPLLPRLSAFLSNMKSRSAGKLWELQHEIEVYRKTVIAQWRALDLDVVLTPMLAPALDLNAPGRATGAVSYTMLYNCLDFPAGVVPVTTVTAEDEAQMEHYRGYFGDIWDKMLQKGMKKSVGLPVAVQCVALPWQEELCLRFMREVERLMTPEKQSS
Kind of test: Whole cell anandamide hydrolysis assay (HeLa clone 5c5 transfected with human FAAH-1). It is filed as cell-based. The following applies: HeLa clone 5c5 expressing human FAAH-1; read-out: human FAAH whole cell IC50. A digest of the protocol: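 Stable HeLa clone 5c5 expressing human FAAH-1, pre-incubated with compound 10 min at 37° C in DMEM/F12 with 15 mM HEPES pH 7.4 and 0.1% fatty-acid-free BSA. [3H]-anandamide (5 μM stock) added for 15 min; [3H]-ethanolamine separated on charcoal and counted. IC50 from curves constrained to 100% and 0%.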

The structures appear in SMILES notation. pIC50: −log10 of the molar value.

`COc1ccc2c(c1)c(C(=O)C(=O)Nc1ccnc(OC)c1)c(C)n2Cc1cnc(Cl)cn1` [Compound 12, 2-(1-((5-chloropyrazin-2-yl)methyl)-5-methoxy-2-methyl-1H-indol-3-yl)-N-(2-methoxypyridin-4-yl)-2-oxoacetamide]: the pIC50 was more than 7.00.
Next, `COc1cc(NC(=O)C(=O)c2c(C)n(Cc3ccc(Cl)cc3)c3ccc(OC)c(Cl)c23)ccn1` [Compound 58, 2-(4-chloro-1-(4-chlorobenzyl)-5-methoxy-2-methyl-1H-indol-3-yl)-N-(2-methoxypyridin-4-yl)-2-oxoacetamide]: more than 7.00; `COc1cc(NC(=O)C(=O)c2c(C)n(Cc3ccc(Cl)cc3)c3ccc(N(C)C)cc23)ccn1` [Compound 17, 2-(1-(4-chlorobenzyl)-5-(dimethylamino)-2-methyl-1H-indol-3-yl)-N-(2-methoxypyridin-4-yl)-2-oxoacetamide]: more than 7.00.
Next, `CNc1ccc2c(c1)c(C(=O)C(=O)Nc1ccnc(OC)c1)c(C)n2Cc1ccc(Cl)cc1` [Compound 9, 2-(1-(4-chlorobenzyl)-2-methyl-5-(methylamino)-1H-indol-3-yl)-N-(2-methoxypyridin-4-yl)-2-oxoacetamide]: more than 7.00.
